Results taken from PubChem BioAssay AID2060512 (Molecular Pharmacology Branch, DTP, NCI, 2025).

Tested on: 186277-243-T-J2-PDC complex spheroid viability
Assay: Anticancer human tumor 186277-243-T-J2-PDC patient-derived colon adenocarcinoma cell line growth inhibition [GQUAD]
Details: for IC50: curve of first compound; for viability, T/C: stronger effect = lower value
Outline: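 Tumor cells were grown as complex spheroids with HUVEC endothelial cells and mesenchymal stem cells as stroma. G-quadruplex stabilizers were combined with targeted agents over half-log dilutions from near the clinical Cmax, or from 10 microM.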

[1] = second compound 0.0316 µM, first compound 0.0316 µM
[2] = second compound 0.0316 µM, first compound 0.1 µM
[3] = second compound 0.0316 µM, first compound 0.316 µM
[4] = second compound 0.0316 µM, first compound 1 µM
[5] = second compound 0.0316 µM, first compound 3.16 µM
[6] = second compound 0.0316 µM, first compound 10 µM
[7] = second compound 0.1 µM, first compound 0.0316 µM
[8] = second compound 0.1 µM, first compound 0.1 µM
[9] = second compound 0.1 µM, first compound 0.316 µM
[10] = second compound 0.1 µM, first compound 1 µM
[11] = second compound 0.1 µM, first compound 3.16 µM
[12] = second compound 0.1 µM, first compound 10 µM
[13] = second compound 0.316 µM, first compound 0.0316 µM
[14] = second compound 0.316 µM, first compound 0.1 µM
[15] = second compound 0.316 µM, first compound 0.316 µM
[16] = second compound 0.316 µM, first compound 1 µM
[17] = second compound 0.316 µM, first compound 3.16 µM
[18] = second compound 0.316 µM, first compound 10 µM
[19] = second compound 1 µM, first compound 0.0316 µM
[20] = second compound 1 µM, first compound 0.1 µM
[21] = second compound 1 µM, first compound 0.316 µM
[22] = second compound 1 µM, first compound 1 µM
[23] = second compound 1 µM, first compound 3.16 µM
[24] = second compound 1 µM, first compound 10 µM
[25] = second compound 3.16 µM, first compound 0.0316 µM
[26] = second compound 3.16 µM, first compound 0.1 µM
[27] = second compound 3.16 µM, first compound 0.316 µM
[28] = second compound 3.16 µM, first compound 1 µM
[29] = second compound 3.16 µM, first compound 3.16 µM
[30] = second compound 3.16 µM, first compound 10 µM
[31] = second compound 10 µM, first compound 0.0316 µM
[32] = second compound 10 µM, first compound 0.1 µM
[33] = second compound 10 µM, first compound 0.316 µM
[34] = second compound 10 µM, first compound 1 µM
[35] = second compound 10 µM, first compound 3.16 µM
[36] = second compound 10 µM, first compound 10 µM
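Also: spheroids exposed to drugs for 7 days.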
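For viability, T/C in this document: 100% = DMSO vehicle control viability.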

For `C#Cc1c(F)ccc2cc(O)cc(-c3ncc4c(N5CC6CCC(C5)N6)nc(OCC56CCCN5CC(F)C6)nc4c3F)c12` (stereo unspecified) + Cc1cnc(CNC(=O)c2c(=O)c3ccc(N4CCCN(C)CC4)nc3n3c2sc2ccccc23)cn1, the IC50 (second compound 0.0316 µM) was 58.7 nM, the IC50 (second compound 0.1 µM) was < 31.6 nM and the IC50 (second compound 0.316 µM) was < 31.6 nM. For the same compound, the IC50 (second compound 1 µM) was < 31.6 nM, the IC50 (second compound 3.16 µM) was < 31.6 nM and the IC50 (second compound 10 µM) was < 31.6 nM. It also gave a viability, T/C [1] of 75.4%, a viability, T/C [2] of 26.8% and a viability, T/C [3] of 19.9%. For the same compound, the viability, T/C [4] was 8.12%, the viability, T/C [5] was 13.9% and the viability, T/C [6] was 11.4%. It also gave a viability, T/C [7] of 40%, a viability, T/C [8] of 18.8% and a viability, T/C [9] of 9.79%. It also gave a viability, T/C [10] of 7.98%, a viability, T/C [11] of 9.12% and a viability, T/C [12] of 5.32%. The viability, T/C [13] was 23.8%, the viability, T/C [14] was 14.6% and the viability, T/C [15] was 8.91%. The viability, T/C [16] was 5.69%, the viability, T/C [17] was 5.84% and the viability, T/C [18] was 4.29%. The viability, T/C [19] was 18.2%, the viability, T/C [20] was 9.62% and the viability, T/C [21] was 6.74%. It also gave a viability, T/C [22] of 5.02%, a viability, T/C [23] of 5.11% and a viability, T/C [24] of 3.11%. The viability, T/C [25] was 17.2%, the viability, T/C [26] was 12.5% and the viability, T/C [27] was 5.45%. It also gave a viability, T/C [28] of 4.44%, a viability, T/C [29] of 4.72% and a viability, T/C [30] of 2.99%. For the same compound, the viability, T/C [31] was 14.2%, the viability, T/C [32] was 9.54% and the viability, T/C [33] was 4.98%. The viability, T/C [34] was 0.27%, the viability, T/C [35] was 2.03% and the viability, T/C [36] was 0.19%.
Work on `CCc1c2c(nc3ccc(O)cc13)-c1cc3c(c(=O)n1C2)COC(=O)[C@]3(O)CC` + Cc1cnc(CNC(=O)c2c(=O)c3ccc(N4CCCN(C)CC4)nc3n3c2sc2ccccc23)cn1 yielded an IC50 (second compound 0.0316 µM) of 5.88 nM, an IC50 (second compound 0.1 µM) of 7.11 nM and an IC50 (second compound 0.316 µM) of 3.96 nM. The IC50 (second compound 1 µM) was < 0.999 nM, the IC50 (second compound 3.16 µM) was < 0.999 nM and the IC50 (second compound 10 µM) was < 0.999 nM. For the same compound, the viability, T/C (second compound 0.0316 µM, first compound 0.000999 µM) was 90.8%, the viability, T/C (second compound 0.0316 µM, first compound 0.00316 µM) was 56% and the viability, T/C (second compound 0.0316 µM, first compound 0.00999 µM) was 46.3%. The viability, T/C [1] was 27.8%, the viability, T/C (second compound 0.0316 µM, first compound 0.0999 µM) was 23.3% and the viability, T/C [3] was 17.6%. It also gave a viability, T/C (second compound 0.1 µM, first compound 0.000999 µM) of 79.3%, a viability, T/C (second compound 0.1 µM, first compound 0.00316 µM) of 56.8% and a viability, T/C (second compound 0.1 µM, first compound 0.00999 µM) of 53.2%. For the same compound, the viability, T/C [7] was 24.5%, the viability, T/C (second compound 0.1 µM, first compound 0.0999 µM) was 23.4% and the viability, T/C [9] was 13.9%. The viability, T/C (second compound 0.316 µM, first compound 0.000999 µM) was 60.5%, the viability, T/C (second compound 0.316 µM, first compound 0.00316 µM) was 53.7% and the viability, T/C (second compound 0.316 µM, first compound 0.00999 µM) was 40.9%. For the same compound, the viability, T/C [13] was 31.9%, the viability, T/C (second compound 0.316 µM, first compound 0.0999 µM) was 30.1% and the viability, T/C [15] was 16.9%. The viability, T/C (second compound 1 µM, first compound 0.000999 µM) was 44.8%, the viability, T/C (second compound 1 µM, first compound 0.00316 µM) was 37.6% and the viability, T/C (second compound 1 µM, first compound 0.00999 µM) was 38.3%. The viability, T/C [19] was 31.8%, the viability, T/C (second compound 1 µM, first compound 0.0999 µM) was 29.5% and the viability, T/C [21] was 4.66%. It also gave a viability, T/C (second compound 3.16 µM, first compound 0.000999 µM) of 33.5%, a viability, T/C (second compound 3.16 µM, first compound 0.00316 µM) of 39.9% and a viability, T/C (second compound 3.16 µM, first compound 0.00999 µM) of 36.5%. It also gave a viability, T/C [25] of 27.9%, a viability, T/C (second compound 3.16 µM, first compound 0.0999 µM) of 25.4% and a viability, T/C [27] of 1.29%. The viability, T/C (second compound 10 µM, first compound 0.000999 µM) was 40.2%, the viability, T/C (second compound 10 µM, first compound 0.00316 µM) was 32.5% and the viability, T/C (second compound 10 µM, first compound 0.00999 µM) was 31.1%. For the same compound, the viability, T/C [31] was 24.7%, the viability, T/C (second compound 10 µM, first compound 0.0999 µM) was 23.3% and the viability, T/C [33] was 0.64%.
In the case of `O=c1[nH]cc(F)c(=O)[nH]1` + Cc1cnc(CNC(=O)c2c(=O)c3ccc(N4CCCN(C)CC4)nc3n3c2sc2ccccc23)cn1, the IC50 (second compound 0.0316 µM) is reported as > 10000 nM, the IC50 (second compound 0.1 µM) is reported as > 10000 nM and the IC50 (second compound 0.316 µM) is reported as > 10000 nM. For the same compound, the IC50 (second compound 1 µM) was < 31.6 nM, the IC50 (second compound 3.16 µM) was < 31.6 nM and the IC50 (second compound 10 µM) was < 31.6 nM. It also gave a viability, T/C [1] of 106%, a viability, T/C [2] of 110% and a viability, T/C [3] of 109%. The viability, T/C [4] was 98.5%, the viability, T/C [5] was 82.9% and the viability, T/C [6] was 57%. The viability, T/C [7] was 86.4%, the viability, T/C [8] was 93.7% and the viability, T/C [9] was 99.9%. The viability, T/C [10] was 79%, the viability, T/C [11] was 93.3% and the viability, T/C [12] was 66.3%. The viability, T/C [13] was 76.8%, the viability, T/C [14] was 73.3% and the viability, T/C [15] was 84.7%. For the same compound, the viability, T/C [16] was 57.7%, the viability, T/C [17] was 75.1% and the viability, T/C [18] was 55.1%. The viability, T/C [19] was 47.9%, the viability, T/C [20] was 56.3% and the viability, T/C [21] was 50.7%. It also gave a viability, T/C [22] of 56.6%, a viability, T/C [23] of 64.3% and a viability, T/C [24] of 56.3%. The viability, T/C [25] was 49.4%, the viability, T/C [26] was 44.8% and the viability, T/C [27] was 51.5%. It also gave a viability, T/C [28] of 50.7%, a viability, T/C [29] of 61.7% and a viability, T/C [30] of 43.7%. For the same compound, the viability, T/C [31] was 40.5%, the viability, T/C [32] was 41.7% and the viability, T/C [33] was 39.2%. It also gave a viability, T/C [34] of 53.3%, a viability, T/C [35] of 48.7% and a viability, T/C [36] of 45.9%.
